# Measured values: patent US20230365592A1 (Agios Pharmaceuticals, Inc., priority 2022, published 2023)
# Molecular target: T1, human PAH with the R408W mutation (Homo sapiens, UniProt P00439, R408W)
# T1 construct: expressed in transfected cells
# T1 sequence (P00439 1-452 R408W): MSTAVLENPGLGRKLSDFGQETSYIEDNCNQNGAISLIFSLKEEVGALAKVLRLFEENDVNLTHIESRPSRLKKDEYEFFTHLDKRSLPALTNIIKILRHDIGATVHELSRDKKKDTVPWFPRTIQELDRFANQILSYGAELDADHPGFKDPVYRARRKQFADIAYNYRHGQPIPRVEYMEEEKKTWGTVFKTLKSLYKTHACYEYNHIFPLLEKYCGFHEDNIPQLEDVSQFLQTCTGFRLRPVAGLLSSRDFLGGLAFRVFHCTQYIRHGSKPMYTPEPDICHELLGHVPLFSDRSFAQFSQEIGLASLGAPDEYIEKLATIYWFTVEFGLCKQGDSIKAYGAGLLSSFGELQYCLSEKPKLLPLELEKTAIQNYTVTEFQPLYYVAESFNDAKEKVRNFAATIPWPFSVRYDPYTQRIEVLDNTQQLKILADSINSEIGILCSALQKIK
# Test: Cell Based Phenylalanine Flux Assay;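 also: after compound treatment, cells received sepiapterin plus isotope-labelled Phenylalanine for 4 hours, then labelled Tyrosine in the medium was quantified, 10-point 2-fold dilution series run in duplicate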
# Details: A375 cells expressing human PAH R408W; 24 hrs compound incubation; 13C-Tyrosine by LC-MS; average where tested multiple times; read-out: AC50
# Method: Compounds were resuspended in DMSO, and 2-fold serial dilutions were performed to generate a 10-point dose curve. Compounds were added to plated cells in a total volume of 100 µl, and a final DMSO concentration of 0.5%. Each compound was tested in duplicate. Following compound addition, cells were placed in a 5% CO2, 37° C. tissue culture incubator for 24 hrs. After the incubation period, 20 µM sepiapterin and 800 µM 13C9,15N-Phenylalanine were added. After 4 hours, cell media was removed. An aliquot of 10 µl of cell media was combined with 200 µl of extraction buffer (80% acetonitrile/20% H2O) for each well. Determination of ^13C-Tyrosine concentration was assessed by liquid chromatography mass spectrometry.
# Where a compound was tested multiple times, the average value of the tests is reported.
row,Compound,AC50 [µM]
1,"Cc1cccn2nc([C@@H]3c4nc[nH]c4CCN3C(=O)c3nnc(-c4cncnc4)o3)cc12 [Example 1972, (S)-(4-(4-methylpyrazolo[1,5-a]pyridin-2-yl)-1,4,6,7-tetrahydro-5H-imidazo[4,5-c]pyridin-5-yl)(5-(pyrimidin-5-yl)-1,3,4-oxadiazol-2-yl)methanone]",0.5 to 1
2,"Cc1cccn2nc([C@H]3c4nc[nH]c4CCN3C(=O)c3nnc(-c4cncnc4)o3)cc12 [Example 1973, (R)-(4-(4-methylpyrazolo[1,5-a]pyridin-2-yl)-1,4,6,7-tetrahydro-5H-imidazo[4,5-c]pyridin-5-yl)(5-(pyrimidin-5-yl)-1,3,4-oxadiazol-2-yl)methanone]",> 5
3,"O=C(c1nnc(-c2cncnc2)o1)N1CCc2[nH]cnc2[C@H]1c1cc2c(F)cccn2n1 [Example 1974, (S)-(4-(4-fluoropyrazolo[1,5-a]pyridin-2-yl)-1,4,6,7-tetrahydro-5H-imidazo[4,5-c]pyridin-5-yl)(5-(pyrimidin-5-yl)-1,3,4-oxadiazol-2-yl)methanone]",0.5 to 1
4,"O=C(c1nnc(-c2cncnc2)o1)N1CCc2[nH]cnc2[C@@H]1c1cc2c(F)cccn2n1 [Example 1975, (R)-(4-(4-fluoropyrazolo[1,5-a]pyridin-2-yl)-1,4,6,7-tetrahydro-5H-imidazo[4,5-c]pyridin-5-yl)(5-(pyrimidin-5-yl)-1,3,4-oxadiazol-2-yl)methanone]",> 5
5,"Fc1cccn2nc([C@H]3c4nc[nH]c4CCN3c3ccccn3)cc12 [Example 1976, (R)-4-(4-fluoropyrazolo[1,5-a]pyridin-2-yl)-5-(pyridin-2-yl)-4,5,6,7-tetrahydro-1H-imidazo[4,5-c]pyridine]",> 5
6,"Fc1cccn2nc([C@@H]3c4nc[nH]c4CCN3c3ccccn3)cc12 [Example 1977, (S)-4-(4-fluoropyrazolo[1,5-a]pyridin-2-yl)-5-(pyridin-2-yl)-4,5,6,7-tetrahydro-1H-imidazo[4,5-c]pyridine]",0.5 to 1
7,"FC(F)c1cccn2nc([C@H]3c4nc[nH]c4CCN3c3ccccn3)cc12 [Example 1978, (R)-4-(4-(difluoromethyl)pyrazolo[1,5-a]pyridin-2-yl)-5-(pyridin-2-yl)-4,5,6,7-tetrahydro-1H-imidazo[4,5-c]pyridine]",> 5
8,"FC(F)c1cccn2nc([C@@H]3c4nc[nH]c4CCN3c3ccccn3)cc12 [Example 1979, (S)-4-(4-(difluoromethyl)pyrazolo[1,5-a]pyridin-2-yl)-5-(pyridin-2-yl)-4,5,6,7-tetrahydro-1H-imidazo[4,5-c]pyridine]",< 0.5
9,"CC(C)c1cccn2nc([C@@H]3c4nc[nH]c4CCN3C(=O)c3nnc(-c4ncccn4)o3)cc12 [Example 1981, (S)-(4-(4-isopropylpyrazolo[1,5-a]pyridin-2-yl)-1,4,6,7-tetrahydro-5H-imidazo[4,5-c]pyridin-5-yl)(5-(pyrimidin-2-yl)-1,3,4-oxadiazol-2-yl)methanone]",0.5 to 1
10,"CC(C)c1cccn2nc([C@@H]3c4nc[nH]c4CCN3C(=O)c3nnc(-c4ccn(C(F)(F)F)n4)o3)cc12 [Example 1984, (S)-(4-(4-isopropylpyrazolo[1,5-a]pyridin-2-yl)-1,4,6,7-tetrahydro-5H-imidazo[4,5-c]pyridin-5-yl)(5-(1-(trifluoromethyl)-1H-pyrazol-3-yl)-1,3,4-oxadiazol-2-yl)methanone]",< 0.5
11,"CC(C)c1cccn2nc([C@H]3c4nc[nH]c4CCN3C(=O)c3nnc(-c4ccn(C(F)(F)F)n4)o3)cc12 [Example 1985, (R)-(4-(4-isopropylpyrazolo[1,5-a]pyridin-2-yl)-1,4,6,7-tetrahydro-5H-imidazo[4,5-c]pyridin-5-yl)(5-(1-(trifluoromethyl)-1H-pyrazol-3-yl)-1,3,4-oxadiazol-2-yl)methanone]",> 5
12,"O=C(c1ocnc1C1CC1)N1CCc2[nH]cnc2[C@H]1c1cc2c(F)cccn2n1 [Example 1986, (S)-(4-cyclopropyloxazol-5-yl)(4-(4-fluoropyrazolo[1,5-a]pyridin-2-yl)-1,4,6,7-tetrahydro-5H-imidazo[4,5-c]pyridin-5-yl)methanone]",< 0.5
13,"O=C(c1ocnc1C1CC1)N1CCc2[nH]cnc2[C@@H]1c1cc2c(F)cccn2n1 [Example 1987, (R)-(4-cyclopropyloxazol-5-yl)(4-(4-fluoropyrazolo[1,5-a]pyridin-2-yl)-1,4,6,7-tetrahydro-5H-imidazo[4,5-c]pyridin-5-yl)methanone]",1 to 5
14,"Cc1cccn2nc([C@@H]3c4nc[nH]c4CCN3C(=O)c3ncco3)cc12 [Example 1989, (S)-(4-(4-methylpyrazolo[1,5-a]pyridin-2-yl)-1,4,6,7-tetrahydro-5H-imidazo[4,5-c]pyridin-5-yl)(oxazol-2-yl)methanone]",0.5 to 1
15,"O=C(c1nnc(C2CC2)s1)N1CCc2[nH]cnc2[C@H]1c1cc2ccccn2n1 [Example 1991, (S)-(5-cyclopropyl-1,3,4-thiadiazol-2-yl)(4-(pyrazolo[1,5-a]pyridin-2-yl)-1,4,6,7-tetrahydro-5H-imidazo[4,5-c]pyridin-5-yl)methanone]",0.5 to 1
16,"O=C(c1nnc(C2CC2)s1)N1CCc2[nH]cnc2[C@@H]1c1cc2c(F)cccn2n1 [Example 1992, (R)-(5-cyclopropyl-1,3,4-thiadiazol-2-yl)(4-(4-fluoropyrazolo[1,5-a]pyridin-2-yl)-1,4,6,7-tetrahydro-5H-imidazo[4,5-c]pyridin-5-yl)methanone]",> 5
17,"O=C(c1nnc(C2CC2)s1)N1CCc2[nH]cnc2[C@H]1c1cc2c(F)cccn2n1 [Example 1993, (S)-(5-cyclopropyl-1,3,4-thiadiazol-2-yl)(4-(4-fluoropyrazolo[1,5-a]pyridin-2-yl)-1,4,6,7-tetrahydro-5H-imidazo[4,5-c]pyridin-5-yl)methanone]",< 0.5
18,"Cn1ccc(-c2nnc(C(=O)N3CCc4[nH]cnc4[C@@H]3c3cc4c(F)cccn4n3)s2)n1 [Example 1994, (R)-(4-(4-fluoropyrazolo[1,5-a]pyridin-2-yl)-1,4,6,7-tetrahydro-5H-imidazo[4,5-c]pyridin-5-yl)(5-(1-methyl-1H-pyrazol-3-yl)-1,3,4-thiadiazol-2-yl)methanone]",> 5
19,"Cn1ccc(-c2nnc(C(=O)N3CCc4[nH]cnc4[C@H]3c3cc4c(F)cccn4n3)s2)n1 [Example 1995, (S)-(4-(4-fluoropyrazolo[1,5-a]pyridin-2-yl)-1,4,6,7-tetrahydro-5H-imidazo[4,5-c]pyridin-5-yl)(5-(1-methyl-1H-pyrazol-3-yl)-1,3,4-thiadiazol-2-yl)methanone]",< 0.5
20,"Cc1cccn2nc([C@@H]3c4nc[nH]c4CCN3C(=O)c3nnc(C4CC4)s3)cc12 [Example 1997, (S)-(5-cyclopropyl-1,3,4-thiadiazol-2-yl)(4-(4-methylpyrazolo[1,5-a]pyridin-2-yl)-1,4,6,7-tetrahydro-5H-imidazo[4,5-c]pyridin-5-yl)methanone]",0.5 to 1
21,"Cc1cccn2nc([C@@H]3c4nc[nH]c4CCN3C(=O)c3nnc(-c4ccn(C)n4)s3)cc12 [Example 1998, (S)-(5-(1-methyl-1H-pyrazol-3-yl)-1,3,4-thiadiazol-2-yl)(4-(4-methylpyrazolo[1,5-a]pyridin-2-yl)-1,4,6,7-tetrahydro-5H-imidazo[4,5-c]pyridin-5-yl)methanone]",< 0.5
22,"Cc1cccn2nc([C@H]3c4nc[nH]c4CCN3C(=O)c3nnc(-c4ccn(C)n4)s3)cc12 [Example 1999, (R)-(5-(1-methyl-1H-pyrazol-3-yl)-1,3,4-thiadiazol-2-yl)(4-(4-methylpyrazolo[1,5-a]pyridin-2-yl)-1,4,6,7-tetrahydro-5H-imidazo[4,5-c]pyridin-5-yl)methanone]",> 5
23,"O=C(c1nc2ccccc2s1)N1CCc2[nH]cnc2[C@H]1c1cc2ccccn2n1 [Example 2000, (S)-benzo[d]thiazol-2-yl(4-(pyrazolo[1,5-a]pyridin-2-yl)-1,4,6,7-tetrahydro-5H-imidazo[4,5-c]pyridin-5-yl)methanone]",1 to 5
24,"O=C(c1nc2ccccc2s1)N1CCc2[nH]cnc2[C@@H]1c1cc2ccccn2n1 [Example 2001, (R)-benzo[d]thiazol-2-yl(4-(pyrazolo[1,5-a]pyridin-2-yl)-1,4,6,7-tetrahydro-5H-imidazo[4,5-c]pyridin-5-yl)methanone]",> 5
25,"O=C(c1nc2ccccc2s1)N1CCc2[nH]cnc2[C@H]1c1cc2c(F)cccn2n1 [Example 2002, (S)-benzo[d]thiazol-2-yl(4-(4-fluoropyrazolo[1,5-a]pyridin-2-yl)-1,4,6,7-tetrahydro-5H-imidazo[4,5-c]pyridin-5-yl)methanone]",0.5 to 1
26,"O=C(c1nc2ccccc2s1)N1CCc2[nH]cnc2[C@@H]1c1cc2c(F)cccn2n1 [Example 2003, (R)-benzo[d]thiazol-2-yl(4-(4-fluoropyrazolo[1,5-a]pyridin-2-yl)-1,4,6,7-tetrahydro-5H-imidazo[4,5-c]pyridin-5-yl)methanone]",> 5
27,"Cn1nccc1-c1nnc(C(=O)N2CCc3[nH]cnc3[C@H]2c2cc3ccccn3n2)o1 [Example 2004, (S)-(5-(1-methyl-1H-pyrazol-5-yl)-1,3,4-oxadiazol-2-yl)(4-(pyrazolo[1,5-a]pyridin-2-yl)-1,4,6,7-tetrahydro-5H-imidazo[4,5-c]pyridin-5-yl)methanone]",0.5 to 1
